Data taken from the NIST ThermoML archive (doi:10.1021/je200790q).
Numbers after ± are expanded uncertainties.

Experiments:
[1] = 101.33 kPa, Liquid; for mass density: Vibrating tube method
[2] = refractive index (Na D-line) (dimensionless); conditions: 101.33 kPa, Liquid, Standard Abbe refractometry
[3] = molar heat capacity at constant pressure; conditions: 298.15 K; 101.33 kPa; Liquid; Drop calorimetry

CCn1cc[n+](C)c1.CS(=O)(=O)[O-] [1-ethyl-3-methylimidazolium methanesulfonate]
Conditions	mass density, [1] [kg/m3]	refractive index, [2]	viscosity, [1] [mPa·s]
278.15 K	1257.1 ± 2	–	805.33 ± 79
283.15 K	1253.3 ± 2	–	505.92 ± 42
288.15 K	1249.5 ± 2	–	336.04 ± 23
288.37 K	–	1.49823 ± 0.00053	–
293.15 K	1245.9 ± 2	–	232.44 ± 13
293.28 K	–	1.49682 ± 0.00053	–
298.15 K	1242.4 ± 2	–	166.59 ± 7.4
298.19 K	–	1.49542 ± 0.00053	–
303.1 K	–	1.49399 ± 0.00053	–
303.15 K	1239 ± 2	–	123.14 ± 4.2
308.01 K	–	1.49254 ± 0.00053	–
308.15 K	1235.6 ± 2	–	93.48 ± 2.3
312.91 K	–	1.49114 ± 0.00053	–
313.15 K	1232.2 ± 2	–	72.64 ± 1.3
318.15 K	1228.8 ± 2	–	57.62 ± 0.66
323.15 K	1225.5 ± 2	–	46.54 ± 0.59
328.15 K	1222.2 ± 2	–	38.2 ± 0.47
333.15 K	1218.9 ± 2	–	31.81 ± 0.38
338.15 K	1215.6 ± 2	–	26.84 ± 0.32
343.15 K	1212.3 ± 2	–	22.9 ± 0.27
348.15 K	1209.1 ± 2	–	19.75 ± 0.23
353.15 K	1205.9 ± 2	–	17.19 ± 0.2
358.15 K	1202.8 ± 2	–	15.08 ± 0.17
363.15 K	1199.7 ± 2	–	13.33 ± 0.15

Conditions	molar heat capacity at constant pressure [J/K/mol]
[3]	345.52 ± 10

CCn1cc[n+](C)c1.O=S(=O)([O-])C(F)(F)F [1-ethyl-3-methylimidazolium trifluoromethanesulfonate]
Conditions	mass density, [1] [kg/m3]	refractive index, [2]	viscosity, [1] [mPa·s]
278.15 K	1403.3 ± 2.1	–	99.83 ± 2.6
283.15 K	1398.9 ± 2.1	–	78.93 ± 1.5
288.15 K	1394.5 ± 2.1	–	63.51 ± 0.83
288.37 K	–	1.43572 ± 0.00053	–
293.15 K	1390.2 ± 2.1	–	51.87 ± 0.49
293.28 K	–	1.43432 ± 0.00053	–
298.15 K	1385.9 ± 2.1	–	42.94 ± 0.52
298.19 K	–	1.43296 ± 0.00053	–
303.1 K	–	1.43159 ± 0.00053	–
303.15 K	1381.6 ± 2.1	–	35.98 ± 0.43
308.01 K	–	1.43025 ± 0.00053	–
308.15 K	1377.3 ± 2.1	–	30.48 ± 0.36
312.91 K	–	1.42886 ± 0.00053	–
313.15 K	1373.1 ± 2.1	–	26.09 ± 0.3
318.15 K	1368.9 ± 2.1	–	22.53 ± 0.26
323.15 K	1364.8 ± 2.1	–	19.62 ± 0.22
328.15 K	1360.6 ± 2.1	–	17.21 ± 0.19
333.15 K	1356.5 ± 2.1	–	15.21 ± 0.17
338.15 K	1352.5 ± 2.1	–	13.52 ± 0.15
343.15 K	1348.4 ± 2.1	–	12.1 ± 0.13
348.15 K	1344.4 ± 2.1	–	10.88 ± 0.12
353.15 K	1340.4 ± 2.1	–	9.845 ± 0.11
358.15 K	1336.4 ± 2.1	–	8.948 ± 0.099
363.15 K	1332.5 ± 2.1	–	8.169 ± 0.091

Conditions	molar heat capacity at constant pressure [J/K/mol]
[3]	362.8 ± 11
